Results taken from patent US8247224B2, “Recombinant construct for detection of halogenated aromatic hydrocarbons” (National Health Research Institutes, priority 2010, dated 2012).

Molecular target: T1, AhR (Rattus norvegicus, UniProt P41738)
T1 construct: introducing a recombinant construct as described above into a host cell that expresses AhR; endogenous in cells; host or cells: H-4-II-E cells infected with the AdEasy-4XDRE-TATA-Luc reporter adenovirus
T1 sequence (P41738 10-853): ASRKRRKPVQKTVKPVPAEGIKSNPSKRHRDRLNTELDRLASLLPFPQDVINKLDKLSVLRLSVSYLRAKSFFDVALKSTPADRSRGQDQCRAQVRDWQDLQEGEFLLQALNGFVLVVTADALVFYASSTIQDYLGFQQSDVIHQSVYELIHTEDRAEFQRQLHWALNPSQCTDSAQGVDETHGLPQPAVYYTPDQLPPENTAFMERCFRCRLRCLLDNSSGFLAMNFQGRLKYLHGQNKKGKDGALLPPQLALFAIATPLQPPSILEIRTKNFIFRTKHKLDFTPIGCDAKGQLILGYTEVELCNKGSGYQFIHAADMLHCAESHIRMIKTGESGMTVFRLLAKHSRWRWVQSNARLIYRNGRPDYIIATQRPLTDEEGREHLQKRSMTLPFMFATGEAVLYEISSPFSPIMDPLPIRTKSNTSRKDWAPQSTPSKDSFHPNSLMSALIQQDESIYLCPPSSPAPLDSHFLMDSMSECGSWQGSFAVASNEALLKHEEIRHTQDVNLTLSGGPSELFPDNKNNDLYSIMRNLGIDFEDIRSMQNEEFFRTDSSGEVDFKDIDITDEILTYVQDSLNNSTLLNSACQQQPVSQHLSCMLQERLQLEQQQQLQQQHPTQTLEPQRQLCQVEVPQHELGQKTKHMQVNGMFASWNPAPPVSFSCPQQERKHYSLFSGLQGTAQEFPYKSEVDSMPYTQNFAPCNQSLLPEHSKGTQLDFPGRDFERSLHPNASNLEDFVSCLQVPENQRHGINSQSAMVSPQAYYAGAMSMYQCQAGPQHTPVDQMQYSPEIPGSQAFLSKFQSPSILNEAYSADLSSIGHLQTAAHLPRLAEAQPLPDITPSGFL
Assay: Luciferase activity of H-4-II-E cells infected with AdEasy-4XDRE-TATA-Luc and treated with TCDD
Type: cell-based
Conditions: AdEasy-4XDRE-TATA-Luc at MOI of one particles/cell for 16 hours, TCDD for 24 hours, luciferase activity (RLU), FIG. 6
Source text: As known in the art, the action of the HAH compounds is mediated through a cytosolic transcription factor, called the aryl hydrocarbon receptor (AhR). After binding of the ligand (HAH compounds), the resulted AhR complex binds to specific DNA sequences i.e. DREs, and then results in transcriptional activation of the adjacent responsive genes. The consensus sequence of the DREs is 5′-TNGCGTG-3′ where N means any nucleotide of A, T, G and C.
H-4-II-E cells (Bioresources Collection and Research Center (BCRC), Food Industry Research and Development Institute (FIRDI), Hsinchu, Taiwan) were seeded on 96-well plates at a density of 2×10^4 cells/well in culture medium (80% Minimum essential medium Eagle with 0.1 mM non-essential amino acids, Earle's BSS, 10% fetal bovine serum and 10% calf serum) and cultured overnight in a humidified atmosphere containing 5% CO2 at 37° C. Subsequently, the cells were incubated with AdEasy-4XDRE-TATA-Luc as obtained in Example 1 at a multiplicity of infection (MOI) of one particles/cell for 16 hours. […] Luciferase activity was measured by Luciferase Assay System (Promega, Madison, Wis., USA) according to the standard protocol as provided using the programmed microplate luminometer MicroLumatPlus LB96V (EG&G Berthold, Germany). The luciferase activity was expressed as relative light units (RLU).

## Clc1cc2c(cc1Cl)Oc1cc(Cl)c(Cl)cc1O2 [TCDD, 2,3,7,8-tetrachlorodibenzo-p-dioxin]
  concentrations between which the luciferase response shows a steep slope: 10^−12 to 10^−10 M
  detection limit: around 10^−12 M
